Data published in US8338450B2, “Compounds as dipeptidyl peptidase IV (DPP IV) inhibitors” (Lupin Limited, priority 2007, dated 2012).
Structures can show the parent of a compound that is named as a salt. Where two headings read alike, the source gives them in different places.

Tests used:
[1] = tested on: C57BL/6J mice; experiment: Oral glucose tolerance test in male C57BL/6J mice; assay type: in vivo; conditions: 3 mg/kg, p.o., oral glucose load 5 g/kg 1 h after compound, glucose AUC 0-120 min vs vehicle
Procedure: B. Oral Glucose Tolerance Test in Male C57BU6J Mice
Overnight-fasted male […] mice were challenged 1 h, 4 h and 8 h after either vehicle or compound administration with an oral glucose load of 5 g/kg in three different groups of animals. Blood samples for glucose measurement were obtained by tail bleed at predose, before glucose load and at serial time points after the glucose load, to evaluate the efficacy and duration of effect on glucose tolerance test. […] Improvement in glucose tolerance in compound-treated animals was estimated by comparing with vehicle-treated animals.
Table 3 provides data for the antihyperglycemic activity of selected compounds in C57BL/6J mice, as determined by oral glucose tolerance test.

[2] = target: T1, human recombinant DPP-IV (Homo sapiens, UniProt P27487); experiment: Inhibition of human recombinant DPP-IV (Gly-Pro-AMC hydrolysis, fluorometric); assay type: biochemical; conditions: for IC50: human recombinant DPP-IV, 50 μM Gly-Pro-AMC, 30 min at 30° C.; for inhibition at 1 µM: compound 1000 nM, relative to vehicle controls, read-out: % inhibition at 1000 nM
T1 construct: purchased R&D Systems, USA (or produced in-house)
T1 sequence (P27487 whole entry): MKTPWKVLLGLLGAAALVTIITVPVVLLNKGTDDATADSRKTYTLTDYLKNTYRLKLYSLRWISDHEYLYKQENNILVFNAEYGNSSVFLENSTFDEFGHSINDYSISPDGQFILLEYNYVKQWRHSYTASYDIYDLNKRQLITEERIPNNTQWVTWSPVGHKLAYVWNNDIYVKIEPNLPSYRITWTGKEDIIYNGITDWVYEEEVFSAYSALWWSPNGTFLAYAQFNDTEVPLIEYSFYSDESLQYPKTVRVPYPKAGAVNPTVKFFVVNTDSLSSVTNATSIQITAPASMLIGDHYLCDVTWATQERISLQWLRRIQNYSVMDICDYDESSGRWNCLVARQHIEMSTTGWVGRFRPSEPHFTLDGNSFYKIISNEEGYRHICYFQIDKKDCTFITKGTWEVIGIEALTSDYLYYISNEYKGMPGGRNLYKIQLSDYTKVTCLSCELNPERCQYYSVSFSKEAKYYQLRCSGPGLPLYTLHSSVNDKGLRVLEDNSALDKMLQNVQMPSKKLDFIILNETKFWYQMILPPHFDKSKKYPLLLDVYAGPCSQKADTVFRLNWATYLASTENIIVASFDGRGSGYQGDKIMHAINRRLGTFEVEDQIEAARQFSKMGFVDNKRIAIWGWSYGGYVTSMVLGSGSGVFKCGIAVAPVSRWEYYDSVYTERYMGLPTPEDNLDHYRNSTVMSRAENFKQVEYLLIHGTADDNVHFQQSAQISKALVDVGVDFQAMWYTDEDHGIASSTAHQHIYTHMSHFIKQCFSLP
Summary of the method: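 Enzyme (10 ng) was preincubated 15 min at 30° C. with compound (10 and 100 nM screen; 8 concentrations 0.1-1000 nM) in Tris-HCl pH 7.4, NaCl, KCl, BSA. 50 μM Gly-Pro-AMC was added for 30 min at 30° C. and AMC fluorescence was read (ex 360/em 460 nm). Results are given as % inhibition versus vehicle or as IC50.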

[3] = target: T2, plasma DPP-IV (Rattus norvegicus, UniProt P14740); experiment: Measurement of plasma DPP-IV activity in male Wistar rats after single oral dose; assay type: in vivo; conditions: p.o.; for inhibition at 3 mg/kg / inhibition at 10 mg/kg: rat, po; for inhibition at 3 mg/kg / Plasma DPP-IV Inhibition (%) 4 h / Plasma DPP-IV Inhibition (%) 6 h / Plasma DPP-IV Inhibition (%) 8 h: 3 mg/kg
T2 construct: from tissue; host or cells: EDTA-plasma of male Wistar rats dosed orally
T2 sequence (P14740 37-767 limits assumed): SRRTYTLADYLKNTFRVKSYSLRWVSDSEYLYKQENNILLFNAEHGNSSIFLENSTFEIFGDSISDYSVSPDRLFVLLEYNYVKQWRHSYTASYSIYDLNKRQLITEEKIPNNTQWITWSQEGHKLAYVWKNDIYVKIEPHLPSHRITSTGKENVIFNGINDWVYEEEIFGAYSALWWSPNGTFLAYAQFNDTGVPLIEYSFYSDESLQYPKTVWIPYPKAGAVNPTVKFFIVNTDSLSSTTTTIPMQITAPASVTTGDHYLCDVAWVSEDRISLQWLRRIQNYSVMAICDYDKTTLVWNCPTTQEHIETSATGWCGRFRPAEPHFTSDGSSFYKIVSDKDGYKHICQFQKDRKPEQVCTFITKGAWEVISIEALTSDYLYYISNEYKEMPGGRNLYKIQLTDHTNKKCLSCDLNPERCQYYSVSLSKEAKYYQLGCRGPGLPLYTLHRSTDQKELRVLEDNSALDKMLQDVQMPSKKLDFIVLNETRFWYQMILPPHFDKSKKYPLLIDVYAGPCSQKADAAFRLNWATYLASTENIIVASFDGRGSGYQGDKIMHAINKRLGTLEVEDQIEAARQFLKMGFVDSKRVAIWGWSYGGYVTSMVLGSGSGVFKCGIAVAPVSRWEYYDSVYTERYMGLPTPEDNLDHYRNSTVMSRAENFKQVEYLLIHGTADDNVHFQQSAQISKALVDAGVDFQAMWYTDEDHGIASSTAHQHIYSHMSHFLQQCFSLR
Procedure: Overnight-fasted male animals were administered either vehicle or single oral doses of compounds. Blood samples were withdrawn from retro-bulbar venous plexus under anesthesia at several time points up to 24 h post-dose. EDTA-plasma was separated and DPP-IV activity was measured using a fluorometric assay. Assays were carried out in 96-well flat-bottom black microwell plates. A typical reaction contained 25 μl plasma, 50 μl of 50 μM substrate (Gly-Pro-AMC) and 25 μl assay buffer (25 mM Tris-HCl, pH 7.4, 140 mM NaCl, 10 mM KCl and 1% BSA) in a total reaction volume of 100 μl. Plasma samples were incubated with the substrate for 30 min at 30° C., following which the fluorescence was measured in a microplate fluorescence redaer (POLARstar Galaxy), with excitation and emission wavelengths set at 360 nm and 460 nm, respectively. Percent inhibition in plasma DPP-IV activity due to compounds was calculated by comparing with plasma from vehicle-treated animals.

[4] = 4 h post-dose, read-out: Plasma DPP-IV Inhibition (%) 4 h
[5] = 6 h post-dose, read-out: Plasma DPP-IV Inhibition (%) 6 h
[6] = 8 h post-dose, read-out: Plasma DPP-IV Inhibition (%) 8 h

With C#C[C@H]1CC[C@@H](C#N)N1C(=O)[C@@H](N)C1CC2CCC(C1)N2C(=O)c1ccnc(F)c1 (stereo partly drawn) [Compound 66, (2S,5R)-1-{(2S)-2-Amino-2-[8-(2-fluoropyridin-4-carbonyl)-8-aza-bicyclo[3.2.1]-oct-3-yl]-exo-ethanoyl}-5-ethynyl-pyrrolidin-2-carbonitrile trifluoro acetic acid salt] the “Improvement in Glucose Tolerance (%) 1 h” value [1] was 48%, the IC50 [2] was 8.24 nM and the inhibition at 3 mg/kg [3, 4] was 56%. For the same molecule, the inhibition at 3 mg/kg [3, 5] was 38% and the inhibition at 3 mg/kg [3, 6] was 38%.

With C#C[C@H]1CC[C@@H](C#N)N1C(=O)[C@@H](N)C1CC2CCC(C1)N2C(=O)c1ccc2c(c1)OCO2.O=C(O)C(F)(F)F (stereo partly drawn) [Compound 67, (2S,5R)-1-{(2S)-2-Amino-2-[8-(benzo[1,3]dioxole-5-carbonyl)-8-aza-bicyclo[3.2.1]oct-3-yl]-exo-ethanoyl}-5-ethynyl-pyrrolidin-2-carbonitrile trifluoroacetic acid salt] the “Improvement in Glucose Tolerance (%) 1 h” value [1] was 50%, the IC50 [2] was 7.68 nM and the “Plasma DPP-IV Inhibition (%) 4 h” value ([3]; 4 h post-dose) was 64%. For the same molecule, the “Plasma DPP-IV Inhibition (%) 6 h” value ([3]; 6 h post-dose) was 36% and the “Plasma DPP-IV Inhibition (%) 8 h” value ([3]; 8 h post-dose) was 23%.

Work on Cl.N#C[C@@H]1C[C@H](F)CN1C(=O)[C@@H](N)C1CC2CCC(C1)N2C(=O)c1ccc(C(F)(F)F)cc1 (stereo partly drawn) [Compound 15, (2S,4S)-1-{(2S)-2-Amino-2-[8-(4-trifluoromethyl-benzoyl)-8-aza-bicyclo[3.2.1]oct-3-yl]-exo-ethanoyl}-4-fluoro-pyrrolidine-2-carbonitrile hydrochloride salt] yielded an IC50 [2] of 1.72 nM and a melting point of 168 to 170 °C.

For COC(=O)[C@@H]1CCCN1C(=O)[C@@H](N)C1CC2CCC(C1)N2C(=O)c1ccc(C(F)(F)F)cc1 (stereo partly drawn) [Compound 10, Methyl (2S)-1-{(2S)-2-amino-2-[8-(4-trifluoromethyl-benzoyl)-8-aza-bicyclo[3.2.1]oct-3-yl]-exo-ethanoyl}-pyrrolidin-2-carboxylate trifluoro acetic acid], the inhibition at 1 µM [2] was 41% and the melting point was 173 to 175 °C.

In the case of N#C[C@@H]1C[C@@H]2C[C@@H]2N1C(=O)[C@@H](N)C1CC2CCC(C1)N2C(=O)c1ccnc(F)c1 (stereo partly drawn) [Compound 28, (1S,3S,5S)-2-{(2S)-2-amino-2-[8-(2-fluoropyridine-4-carbonyl)-8-aza-bicyclo[3.2.1]-oct-3-yl]-exo-ethanoyl}-2-azabicyclo[3.1.0]-hexane-3-carbonitrile trifluoro acetic acid salt], the “Improvement in Glucose Tolerance (%) 1 h” value [1] is reported as 54%, the IC50 [2] is reported as 4.7 nM and the inhibition at 3 mg/kg [3, 4] is reported as 51%. For the same molecule, the inhibition at 3 mg/kg [3, 5] was 35%, the inhibition at 3 mg/kg [3, 6] was 28% and the inhibition at 10 mg/kg [3, 4] was 77%. It also gave an inhibition at 10 mg/kg [3, 5] of 65% and an inhibition at 10 mg/kg [3, 6] of 53%.

N[C@H](C(=O)N1CC(F)C1)C1CC2CCC(C1)N2C(=O)c1ccncc1F (stereo partly drawn) (as salt: trifluoroacetic acid salt) [Compound 62, {(2S)-2-Amino-2-[8-(3-fluoropyridine-4-carbonyl)-8-aza-bicyclo[3.2.1]-oct-3-yl]-exo-ethanoyl}-3-fluoroazetidine trifluoroacetic acid salt] showed a melting point of 90 to 93 °C.

For N#C[C@@H]1C[C@@H]2C[C@@H]2N1C(=O)[C@@H](N)C1CC2CCC(C1)N2C(=O)c1cnccn1.O=C(O)C(F)(F)F (stereo partly drawn) [Compound 35, (1S,3S,5S)-2-{(2S)-2-Amino-2-[8-(pyrazine-2-carbonyl)-8-aza-bicyclo[3.2.1]oct-3-yl]-exo-ethanoyl}-2-azabicyclo[3.1.0]hexane-3-carbonitrile trifluoroacetic acid salt], the “Improvement in Glucose Tolerance (%) 1 h” value [1] was 46%, the IC50 [2] was 4.2 nM and the “Plasma DPP-IV Inhibition (%) 4 h” value ([3]; 4 h post-dose) was 54%. The “Plasma DPP-IV Inhibition (%) 6 h” value ([3]; 6 h post-dose) was 42% and the “Plasma DPP-IV Inhibition (%) 8 h” value ([3]; 8 h post-dose) was 33%.

Molecule N#C[C@@H]1CCCN1C(=O)[C@@H](N)C1CC2CCC(C1)N2 (stereo partly drawn) (as salt: salt) [Compound 8, (2S)-1-{(2S)-2-Amino-2-[8-aza-bicyclo[3.2.1]oct-3-yl]-exo-ethanoyl}-pyrrolidin-2-carbonitrile trifluoro acetic acid salt] has a melting point of 143 to 145 °C.

Cl.N[C@H](C(=O)N1CCC[C@H]1c1nn[nH]n1)C1CC2CCC(C1)N2C(=O)c1ccc(C(F)(F)F)cc1 (stereo partly drawn) [Compound 13, (2S)-1-{(2S)-2-Amino-2-[8-(4-trifluoromethyl-benzoyl)-8-aza-bicyclo[3.2.1]oct-3-yl]-exo-ethanoyl}-2-(2H-tetrazol-5-yl)pyrrolidine hydrochloride] showed an inhibition at 1 µM [2] of 21% and a melting point of 244 to 246 °C.
